Read-outs that look alike come from different tables or passages of the source.
Key:
[1] = pKa of sulfonamide amino group of inhibitor; cited from earlier work
CA VI [2] = biological target: T1, CA VI (Homo sapiens, UniProt P23280); conditions: FTSA, pH 7.0, 37 °C; read-out: Kd_obs CA VI; cited from earlier work
T1 construct: made in house; host or cells: E. coli

[3] = biological target: T2, CA VI-mimic (CA II mutant A65T, N67Q, F130Y, V134Q, L203T) (Homo sapiens, UniProt P00918, A65T/F130Y/L203T/N67Q/V134Q); test: Fluorescent thermal shift assay (FTSA), inhibitor binding to CA VI-mimic; conditions: for difference between Kd_obs and Kd_intr for CA VI-mimic / Kd: FTSA; for difference between Kd_obs and Kd_intr for CA VI-mimic: 37 °C; for Kd: read-out: Kd_obs CA VI-mimic
T2 construct: encoding full length CA II (1-260), was used in site-directed mutagenesis; made in house; host or cells: E. coli BL21(DE3)

CA II = biological target: T3, CA II (Homo sapiens, UniProt P00918); conditions: FTSA, pH 7.0, 37 °C; read-out: Kd_obs CA II; cited from earlier work
T3 construct: encoding full length CA II (1-260), was used in site-directed mutagenesis; made in house; host or cells: E. coli

CA VI [4] = biological target: T1, CA VI; test: Stopped-flow CO2 hydration assay (SFA), inhibition of CA VI; format: biochemical
[5] = SFA pH 7.5, measured at 23 °C, extrapolated to 37 °C by van't Hoff equation, read-out: Kd_obs CA VI by SFA (in parentheses)
[6] = SFA, pH 7.5, 23 °C, read-out: Kd_obs CA VI by SFA

T1 sequence (P23280 18-308): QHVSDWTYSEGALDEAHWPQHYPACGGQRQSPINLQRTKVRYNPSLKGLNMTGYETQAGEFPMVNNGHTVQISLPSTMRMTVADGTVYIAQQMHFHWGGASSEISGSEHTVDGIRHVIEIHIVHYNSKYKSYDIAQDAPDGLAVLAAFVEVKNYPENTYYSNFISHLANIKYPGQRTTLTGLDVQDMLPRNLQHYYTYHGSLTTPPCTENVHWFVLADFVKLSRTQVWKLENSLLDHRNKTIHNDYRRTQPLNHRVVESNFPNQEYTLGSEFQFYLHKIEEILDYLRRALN

Structure (SMILES) | pKa_SA [1] | Kd (CA VI [2]) [µM] | other results
NS(=O)(=O)C(F)(F)F [Inhibitor 1] | 6.02 |  | 
CCOc1ccc2nc(S(N)(=O)=O)sc2c1 [Inhibitor 2] | 7.82 |  | 
CC(=O)/N=c1/sc(S(N)(=O)=O)nn1C [Inhibitor 3] | 6.86 |  | 
NS(=O)(=O)c1c(F)c(F)c(F)c(F)c1F [Inhibitor 4] | 8.12 | 0.43 | 
NS(=O)(=O)c1c(F)c(F)c(N2CCOCC2)c(F)c1F [Inhibitor 5] | 8.61 | 1.1 | 
NS(=O)(=O)c1c(F)c(F)c(SCCO)c(F)c1F [Inhibitor 6] | 8.14 |  | 
NNc1c(F)c(F)c(S(N)(=O)=O)c(F)c1F [Inhibitor 7] | 8.84 | 1 | 
NS(=O)(=O)c1c(F)c(F)c(NCc2ccccc2)c(F)c1F [Inhibitor 8] | 8.47 | 1.2 | 
NS(=O)(=O)c1c(F)c(F)c(Sc2ccccc2)c(F)c1F [Inhibitor 9] | 7.80 | 0.2 | 
NS(=O)(=O)c1c(F)c(F)c(S(=O)(=O)CCO)c(F)c1F [Inhibitor 10] | 7.28 |  | difference between Kd_obs and Kd_intr for CA VI-mimic [3]: lower than 10 fold
NS(=O)(=O)c1c(F)c(F)c(S(=O)(=O)CCO)c(F)c1NCc1ccccc1 [Inhibitor 11] | 7.85 | 0.13 | Kd ([3]; pH 7.0, 37 °C): 0.14 µM; Kd (CA II): 0.083 µM
NS(=O)(=O)c1c(F)c(F)c(Sc2nc(-c3ccccc3)c(-c3ccccc3)[nH]2)c(F)c1F [Inhibitor 12] | 7.69 | 0.14 | 
NS(=O)(=O)c1c(F)c(F)c(Sc2nc3ccccc3s2)c(F)c1F [Inhibitor 13] | 7.83 | 0.2 | 
Cc1cc(C)nc(Sc2c(F)c(F)c(S(N)(=O)=O)c(F)c2F)n1 [Inhibitor 14] | 8.02 | 1 | Kd (CA VI [4]; [5]): 0.63 µM; Kd (CA VI [4]; [6]): 0.29 µM
NS(=O)(=O)c1c(F)c(F)c(SCCc2ccccc2)c(F)c1F [Inhibitor 15] | 8.05 | 0.4 | 
NS(=O)(=O)c1ccc(SCCc2ccccc2)cc1 [Inhibitor 16] | 10.1 | 1.1 | difference between Kd_obs and Kd_intr for CA VI-mimic [3]: 2500 fold
NS(=O)(=O)c1c(F)c(F)c(SCCc2ccccc2)c(F)c1N1CCOCC1 [Inhibitor 17] | 8.67 | 100 | Kd [3]: 100 µM
NS(=O)(=O)c1c(F)c(F)c(S(=O)(=O)c2ccccc2)c(F)c1F [Inhibitor 18] | 7.07 | 0.16 | difference between Kd_obs and Kd_intr for CA VI-mimic [3]: lower than 10 fold
NS(=O)(=O)c1c(F)c(F)c(SCCC(=O)O)c(F)c1F [Inhibitor 19] | 7.97 | 0.5 | 
CC(C)Nc1c(F)c(SCCc2ccccc2)c(F)c(F)c1S(N)(=O)=O [Inhibitor 20] | 8.67 | 3.3 | Kd ([3]; pH 7.0, 37 °C): 2.5 µM
COc1ccc(CNc2c(F)c(SCCc3ccccc3)c(F)c(F)c2S(N)(=O)=O)cc1OC [Inhibitor 21] | 8.67 | 20 | Kd ([3]; pH 7.0, 37 °C): 3.3 µM; Kd (CA II): 1.8 µM
CCCSc1c(F)c(F)c(S(N)(=O)=O)c(F)c1F [Inhibitor 22] | 8.15 | 0.14 | 

Structure (SMILES) | pKa_SA [1] | Kd (CA VI [2]) [µM] | other results
CCCSc1ccc(S(N)(=O)=O)cc1 [Inhibitor 23] | 10.2 | 0.83 | difference between Kd_obs and Kd_intr for CA VI-mimic [3]: 3200 fold; Kd (CA VI [4]; [5]): 3.9 µM; Kd (CA VI [4]; [6]): 1.8 µM
COc1ccc(CNc2c(F)c(SCCO)c(F)c(F)c2S(N)(=O)=O)cc1OC [Inhibitor 24] | 8.67 | 11 | Kd ([3]; pH 7.0, 37 °C): 5 µM; Kd (CA II): 1.3 µM
NS(=O)(=O)c1c(F)c(F)c(S(=O)(=O)CCO)c(NC2CCCCCCC2)c1F [Inhibitor 25] | 8.01 |  | 
NS(=O)(=O)c1c(F)c(F)c(S(=O)(=O)CCc2ccccc2)c(F)c1F [Inhibitor 26] | 7.22 | 0.14 | difference between Kd_obs and Kd_intr for CA VI-mimic [3]: lower than 10 fold
NS(=O)(=O)c1c(F)c(F)c(S(=O)(=O)CCc2ccccc2)c(NC2Cc3ccccc3C2)c1F [Inhibitor 27] | 7.87 | 2 | Kd ([3]; pH 7.0, 37 °C): 1 µM; Kd (CA II): 0.035 µM
NS(=O)(=O)c1c(F)c(F)c(S(=O)(=O)CCc2ccccc2)c(NCc2ccccc2)c1F [Inhibitor 29] | 7.87 | 0.11 | Kd ([3]; pH 7.0, 37 °C): 0.2 µM
NS(=O)(=O)c1ccc(SCCO)cc1 [Inhibitor 30] | 9.96 |  | 
NS(=O)(=O)c1c(F)c(F)c(S(=O)(=O)CCc2ccccc2)c(N[C@H](c2ccccc2)[C@H](O)c2ccccc2)c1F [Inhibitor 31] | 7.87 | 1 | Kd ([3]; pH 7.0, 37 °C): 2 µM; weakening of intrinsic binding to CA VI-mimic relative to comparison compound ([3]; Kd_intr, 30 vs 23, 6 vs 22, 19 vs 22, 31 vs 26): 9 fold; Kd (CA II): 0.033 µM
NS(=O)(=O)c1c(F)c(F)c(SCc2ccccc2)c(F)c1F [Inhibitor 32] | 8.53 | 0.33 | stronger intrinsic binding to CA VI-mimic than inhibitor 9 ([3]; Kd_intr): 4 fold; stronger intrinsic binding to CA VI-mimic than inhibitor 15 ([3]; Kd_intr): 2 fold
CCOC(=O)c1cnc(SCC(=O)c2ccc(Cl)c(S(N)(=O)=O)c2)[nH]c1=O [Inhibitor 33] | 8.90 |  | 
NS(=O)(=O)c1ccc(C(=O)CSc2ccccc2)cc1Cl [Inhibitor 34] | 8.70 | 1.1 | Kd ([3]; pH 7.0, 37 °C): 0.33 µM; Kd (CA II): 0.0056 µM
Cc1cc(C)nc(SCC(=O)c2cccc(S(N)(=O)=O)c2)n1 [Inhibitor 35] | 9.40 |  | 
CCc1cnc(SCC(=O)c2ccc(S(N)(=O)=O)c(Cl)c2)nc1 [Inhibitor 36] | 8.90 |  | 
CCCc1cnc(SCC(=O)c2ccc(S(N)(=O)=O)c(Cl)c2)nc1 [Inhibitor 37] | 8.90 |  | 
CCCc1cnc(SCC(=O)c2ccc(S(N)(=O)=O)cc2)nc1 [Inhibitor 38] | 9.40 |  | 
Cc1cc(=O)[nH]c(SCC(=O)c2ccc(S(N)(=O)=O)c(Cl)c2)n1 [Inhibitor 39] | 8.90 |  | 
NS(=O)(=O)c1cccc(C(=O)Cn2cnc3ccccc32)c1 [Inhibitor 40] | 9.60 | 6.7 | Kd ([3]; pH 7.0, 37 °C): 3.3 µM; Kd (CA II): 3.6 µM
NS(=O)(=O)c1ccc(C(=O)Cn2cnc3ccccc32)cc1Cl [Inhibitor 41] | 8.30 | 3.3 | 
NS(=O)(=O)c1ccc(C(=O)Cn2c(Cc3ccccc3)nc3ccccc32)cc1Cl [Inhibitor 42] | 8.70 | 1.4 | Kd ([3]; pH 7.0, 37 °C): 0.33 µM
NS(=O)(=O)c1cccc(C(=O)Cn2c(Cc3ccccc3)nc3ccccc32)c1 [Inhibitor 43] | 9.60 | 10 | Kd ([3]; pH 7.0, 37 °C): 3.3 µM
NS(=O)(=O)c1cccc(C(=O)CSc2nc3ccccc3s2)c1 [Inhibitor 44] | 9.60 | 3.3 | Kd ([3]; pH 7.0, 37 °C): 0.5 µM; Kd (CA II): 0.14 µM
C=CCNc1nc(-c2ccc(S(N)(=O)=O)c(Cl)c2)cs1 [Inhibitor 46] | 9.40 | 17 | Kd ([3]; pH 7.0, 37 °C): 1.1 µM; Kd (CA II): 0.1 µM

From article PMC6722136, “Engineered Carbonic Anhydrase VI-Mimic Enzyme Switched the Structure and Affinities of Inhibitors” (Scientific Reports, 2019)
